In patent US20240391931A1 (Bristol-Myers Squibb Company, priority 2021, published 2024) one finds EC50 data, which are given here for 27 compounds.

For this experiment, the target named is HER2YVMA (Homo sapiens, UniProt P04626, INS775YVMA). The experiment in a line: HER2 signaling (pHER2) in Hek293-HER2YVMA cells. It counts as cell-based. Set-up: expressed in transfected cells; host or cells: HEK293 (pool), Ba/F3 (clones), BEAS2B (clones); lentiviral vector pCDH-CMV-MCS-EF1-Neo. To be noted: 1.5 hr compound, 1% FBS, read-out: HEKYVMA pHER2 EC50. The method, then: Cell culture, plasmid cloning, and lentiviral transduction were carried out according to standard procedures. The Human HER2 cDNA construct in pCMV6-Entry for the HER2 wildtype (WT) expression was obtained from Origene. The HER2 cDNA including the 12-nucleotide insertion corresponding to YVMA insertion (HER2YVMA) was codon optimized, synthesized and cloned by GenScript (Piscataway, NJ) in pcDNA3.1. The lentiviral constructs expressing HER2YVMA and HER2 WT were sub-cloned using PCR at System Biosciences (SBI, Mountainview, CA) into lentiviral vectors pCDH-CMV-MCS-EF1-Neo and lentiviral particles were generated.
Engineered lines expressing HER2YVMA and HER2 WT were prepared in HEK293 (human embryonic kidney cells), Ba/F3 (Interleukin 3 (IL3)-dependent murine pro B cell line), and BEAS2B (primary immortalized human bronchial epithelial cell line). Ba/F3, BEAS2B, and HEK293 cells were obtained from the American Type Culture Collection (ATCC, Manassas, VA). Parental Ba/F3 cells were grown in suspension in complete RPMI 1640 supplemented with 10% FBS and 1% P/S and 10 ng/ml interleukin 3 (IL3, Sigma-Aldrich). Hek293 and BEAS2B cells were grown as monolayers in DMEM supplemented with 10% FBS and 1% P/S. All cells were maintained and propagated in a humidified 5% CO2 incubator at 37° C.
To generate Ba/F3, BEAS2B, and Hek-293 cells engineered with lentivirus to express HER2 WT or HER2YVMA, the cells were transduced with lentiviruses at multiplicity of infection (MOI) of 1 or 10; transduced cells were selected and maintained with G418 ([…]) (Geneticin, Life Technologies, Carlsbad, CA). Ba/F3 engineered cells were subjected to gradual withdrawal of interleukin 3 (IL-3, Sigma-Aldrich). After selection, IL3 independent Ba/F3 HER2YVMA, and BEAS2B HER2YVMA cells were cloned by limiting dilution. Hek293 HER2YVMA cells were used as pool. HER2 and phospho HER2 levels were confirmed by flow cytometery and immunoassay (MSD, Meso-Scale Discovery, Rockville, Maryland).
HER2 signaling was assessed in BT474 and N87 cell lines which endogenously overexpress the HER2 wildtype (WT) protein, in NCI-H1781 cells which endogenously expresses a HER2 mutant protein containing a VC insertion in the kinase domain (HER2VC or G776delinsVC), and in engineered cell lines transduced to express the Her2 mutant protein containing the YVMA insertion (Hek293-HER2YVMA and BEAS2B-HER2YVMA).
BT474, N87, and NCI-H1781 were plated in 96-well tissue-culture treated plates (Corning Costar, Sigma-Aldrich) in full media and incubated overnight. Hek293-HER2YVMA and BEAS2B-HER2YVMA cells were plated in 96-well poly-D-lysine treated plates (BD Bioscience, San Jose, CA). For treatment with test compounds, the media was replaced with corresponding low serum media (1% FBS) containing test compound at 1.1, 0.37, 0.12, 0.041, 0.014, 0.005, 0.0014, 0.0005 μM or DMSO control (0.1%). Cells were incubated with compound for 1.5 hr at 37° C. After compound treatment, the media was removed and cells were lysed for 30 min on ice in complete MSD lysis buffer (prepared using MSD base lysis buffer (Meso-Scale Discovery) supplemented with cOmplete, EDTA-free Protease inhibitor cocktail (Roche), Phosphatase Inhibitor Cocktails 2 and 3 (Sigma-Aldrich), and 1 mM PMSF (Sigma-Aldrich)). Lysates were stored at −70° C. until further analysis.
HER2 signaling was evaluated using phospho (Tyr1248)/total ErbB2 whole cell lysate MSD plates (Meso-Scale Discovery, Gaithersburg, MD). The phospho HER2 signal was normalized to total HER2 for each sample; results are reported as % DMSO control. The normalized data was fitted using a sigmoidal curve analysis program (Graph Pad Prism version 6) with variable Hill slope to determine EC50 values.
The HER2 signaling results are provided in Table 4, under columns titled “BT474-pHER2 EC50”, “N87-pHER2 EC50”, and “NCI-H1781-pHER2 EC50”. […]

pEC50: −log10 of the molar value.

By pEC50 is commonly meant the EC50 on a negative log10 scale, so that one unit is a factor of ten.

Chain of HER2YVMA (P04626 with tags, fused parts or gaps INS775YVMA): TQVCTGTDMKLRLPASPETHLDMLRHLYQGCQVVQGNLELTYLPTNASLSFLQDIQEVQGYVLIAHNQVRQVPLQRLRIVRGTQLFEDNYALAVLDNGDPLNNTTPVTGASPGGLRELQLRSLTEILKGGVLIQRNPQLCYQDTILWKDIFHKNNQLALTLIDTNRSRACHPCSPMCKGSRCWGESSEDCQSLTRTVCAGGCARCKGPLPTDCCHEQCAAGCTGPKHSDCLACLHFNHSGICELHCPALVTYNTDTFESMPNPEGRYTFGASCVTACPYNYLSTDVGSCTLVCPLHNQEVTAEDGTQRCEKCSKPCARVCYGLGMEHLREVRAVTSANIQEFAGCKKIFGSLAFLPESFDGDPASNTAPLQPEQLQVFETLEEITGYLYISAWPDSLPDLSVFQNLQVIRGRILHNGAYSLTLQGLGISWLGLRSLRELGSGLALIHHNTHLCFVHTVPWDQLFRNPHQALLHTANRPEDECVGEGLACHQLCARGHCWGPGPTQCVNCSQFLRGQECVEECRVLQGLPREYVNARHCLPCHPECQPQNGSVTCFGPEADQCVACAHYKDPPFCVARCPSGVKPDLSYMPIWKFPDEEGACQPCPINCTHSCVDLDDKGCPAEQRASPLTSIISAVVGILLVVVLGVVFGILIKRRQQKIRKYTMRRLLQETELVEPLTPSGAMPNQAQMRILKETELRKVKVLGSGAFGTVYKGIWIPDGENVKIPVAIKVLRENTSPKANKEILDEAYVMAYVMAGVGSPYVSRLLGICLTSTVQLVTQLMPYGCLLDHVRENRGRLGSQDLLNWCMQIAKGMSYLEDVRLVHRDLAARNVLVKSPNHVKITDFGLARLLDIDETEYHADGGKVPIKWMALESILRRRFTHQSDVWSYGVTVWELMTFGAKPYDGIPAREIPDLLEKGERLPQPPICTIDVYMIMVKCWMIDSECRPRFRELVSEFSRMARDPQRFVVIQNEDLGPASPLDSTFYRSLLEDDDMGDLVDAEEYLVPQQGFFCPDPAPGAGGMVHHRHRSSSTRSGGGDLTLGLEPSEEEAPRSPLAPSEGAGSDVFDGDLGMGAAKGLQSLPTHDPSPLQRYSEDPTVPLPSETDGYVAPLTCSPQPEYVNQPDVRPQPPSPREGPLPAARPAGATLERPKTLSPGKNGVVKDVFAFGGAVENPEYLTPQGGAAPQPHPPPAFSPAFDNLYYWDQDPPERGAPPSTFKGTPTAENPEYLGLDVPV

Turning to `Cc1ccc(Oc2ccc(Nc3ncnc4sc5c(c34)CCN(C(=O)/C=C/CN3CCOCC3)C5)cc2C)cn1` [Compound 17, (E)-1-(4-((3-Methyl-4-((6-methylpyridin-3-yl)oxy)phenyl)amino)-5,6-dihydropyrido[4′,3′:4,5]thieno[2,3-d]pyrimidin-7(8H)-yl)-4-morpholinobut-2-en-1-one], the pEC50 is more than 7.00.
On to `Cc1cn2ccc(Oc3ccc(Nc4ncnc5sc6c(c45)CCN(C(=O)/C=C/CN(C)C)C6)cc3C)cc2n1` [Compound 110, (E)-4-(dimethylamino)-1-(4-((3-methyl-4-((2-methylimidazo[1,2-a]pyridin-7-yl)oxy)phenyl)amino)-5,8-dihydropyrido[4′,3′:4,5]thieno[2,3-d]pyrimidin-7(6H)-yl)but-2-en-1-one], for which the pEC50 is 6.46 to 7.00.
Consider `COc1ccc(Oc2ccc(Nc3ncnc4sc5c(c34)CCN(C(=O)/C=C/CN3CC[C@@H](CO)C3)C5)cc2C)cn1` [Compound 143], for which the pEC50 is more than 7.00.
The value for `Cc1ccc(Oc2ccc(Nc3ncnc4sc5c(c34)CN(C(=O)/C=C/CN(C)C)C5C)cc2C)cn1` (stereo not drawn) [Compound 153, (E)-4-(dimethylamino)-1-(7-methyl-4-((3-methyl-4-((6-methylpyridin-3-yl)oxy)phenyl)amino)-5,7-dihydro-6H-pyrrolo[3′,4′:4,5]thieno[2,3-d]pyrimidin-6-yl)but-2-en-1-one] was more than 7.00; that for `Cc1ccc(Oc2ccc(Nc3ncnc4sc5c(c34)CCN(C(=O)/C=C/CN3CCC(CO)(CO)CC3)C5)cc2C)cn1` [Compound 135] was 6.46 to 7.00.
In the case of `Cc1ccc(Oc2ccc(Nc3ncnc4sc5c(c34)C[C@@H](C)N(C(=O)/C=C/CN(C)C)[C@@H]5C)cc2C)cn1` (racemic) [Compound 165, (E)-1-(6,8-trans-dimethyl-4-((3-methyl-4-((6-methylpyridin-3-yl)oxy)phenyl)amino)-5,8-dihydropyrido[4′,3′:4,5]thieno[2,3-d]pyrimidin-7(6H)-yl)-4-(dimethylamino)but-2-en-1-one], the negative logarithm of the EC50 (pEC50) is 6.46 to 7.00.
For the compound `Cc1ccc(Oc2ccc(Nc3ncnc4sc5c(c34)C(C)CN(C(=O)/C=C/CN(C)C)C5)cc2Cl)cn1` (stereo not drawn) [Compound 171, (E)-1-(4-((3-Chloro-4-((6-methylpyridin-3-yl)oxy)phenyl)amino)-5-methyl-5,6-dihydropyrido[4′,3′:4,5]thieno[2,3-d]pyrimidin-7(8H)-yl)-4-(dimethylamino)but-2-en-1-one], the pEC50 was more than 7.00.
For `Cc1ccc(Oc2ccc(Nc3ncnc4sc5c(c34)CCN(C(=O)/C=C/CN3CC4CCC(C3)O4)C5)cc2C)cn1` [Compound 13], the pEC50 is more than 7.00.
As to `Cc1cc(Nc2ncnc3sc4c(c23)CCN(C(=O)/C=C/CN(C)C)C4)ccc1Oc1ccc(N(C)C)nc1` [Compound 158, (E)-4-(dimethylamino)-1-(4-((4-((6-(dimethylamino)pyridin-3-yl)oxy)-3-methylphenyl)amino)-5,8-dihydropyrido[4′,3′:4,5]thieno[2,3-d]pyrimidin-7(6H)-yl)but-2-en-1-one], the pEC50 was more than 7.00.
Consider `Cc1nc2cc(Oc3ccc(Nc4ncnc5sc6c(c45)CCN(C(=O)/C=C/CN(C)C)C6)cc3C)ccn2n1` [Compound 127, (E)-4-(dimethylamino)-1-(4-((3-methyl-4-((2-methyl-[1,2,4]triazolo[1,5-a]pyridin-7-yl)oxy)phenyl)amino)-5,6-dihydropyrido[4′,3′:4,5]thieno[2,3-d]pyrimidin-7(8H)-yl)but-2-en-1-one], for which the pEC50 is more than 7.00.
As for `COc1cc(Nc2ncnc3sc4c(c23)CCN(C(=O)/C=C/CN(C)C)C4)ccc1Oc1ccccc1` [Compound 7, (E)-4-(dimethylamino)-1-(4-((3-methoxy-4-phenoxyphenyl)amino)-5,8-dihydropyrido[4′,3′:4,5]thieno[2,3-d]pyrimidin-7(6H)-yl)but-2-en-1-one], the negative-log EC50 (pEC50) is more than 7.00.
`Cc1cc(Nc2ncnc3sc4c(c23)CCN(C(=O)/C=C/CN2CCOCC2)C4)ccc1Oc1ccc2ncnn2c1` [Compound 12]: the pEC50 is more than 7.00.
Next, `Cc1ccc(Oc2ccc(Nc3ncnc4sc5c(c34)CCN(C(=O)/C=C/CN3CC4CC(C3)O4)C5)cc2C)cn1` [Compound 15]: more than 7.00.
As to `C=CC(=O)N1CCc2c(sc3ncnc(Nc4ccc(Oc5cccnc5)c(Cl)c4)c23)C1` [Compound 6, 1-(4-((3-chloro-4-(pyridin-3-yloxy)phenyl)amino)-5,8-dihydropyrido[4′,3′:4,5]thieno[2,3-d]pyrimidin-7(6H)-yl)prop-2-en-1-one], the pEC50 was more than 7.00.
On to `Cc1ccc(Oc2ccc(Nc3ncnc4sc5c(c34)CC(C)N(C(=O)C=CCN(C)C)C5C)cc2C)cn1` (single isomer, unassigned) [Compound 161], for which the pEC50 was more than 7.00.
In the case of `Cc1ccc(Oc2ccc(Nc3ncnc4sc5c(c34)CCN(C(=O)/C=C/CN3CCCC34CCC4)C5)cc2C)cn1` [Compound 115], the pEC50 was more than 7.00.
The value for `Cc1ccc(Oc2ccc(Nc3ncnc4sc5c(c34)CCN(C(=O)/C=C/CN3CC4CC4(CO)C3)C5)cc2C)cn1` (stereo not drawn) [Compound 118] was more than 7.00; that for `Cc1ccc(Oc2ccc(Nc3ncnc4sc5c(c34)CCN(C(=O)/C=C/CN3CC4CCC3C4)C5)cc2C)cn1` (stereo not drawn) [Compound 14] was more than 7.00; that for `Cc1ccc(Oc2ccc(Nc3ncnc4sc5c(c34)C(C)CN(C(=O)C=CCN3CCOCC3)C5)cc2C)cn1` (single isomer, unassigned) [Compound 177] was more than 7.00.
Take `C=CC(=O)N1Cc2sc3ncnc(Nc4ccc(Oc5ccc(C)nc5)c(C)c4)c3c2C(C)C1` (single isomer, unassigned) [Compound 145]: the pEC50 is more than 7.00.
On to `Cc1ccc(Oc2ccc(Nc3ncnc4sc5c(c34)CCN(C(=O)/C=C/CN3CCCC(F)(CO)C3)C5)cc2C)cn1` (stereo not drawn) [Compound 150], for which the pEC50 was more than 7.00.
The value for `Cc1ccc(Oc2ccc(Nc3ncnc4sc5c(c34)C[C@@H](C)N(C(=O)/C=C/CN(C)C)[C@H]5C)cc2C)cn1` (racemic) [Compound 149, (E)-1-(6,8-cis-dimethyl-4-((3-methyl-4-((6-methylpyridin-3-yl)oxy)phenyl)amino)-5,8-dihydropyrido[4′,3′:4,5]thieno[2,3-d]pyrimidin-7(6H)-yl)-4-(dimethylamino)but-2-en-1-one] was more than 7.00.
With `Cc1ccc(Oc2ccc(Nc3ncnc4sc5c(c34)CCN(C(=O)/C=C/CN3CC(C)OC(C)C3C)C5)cc2C)cn1` (stereo not drawn) [Compound 117], the pEC50 is more than 7.00.
`CC[C@H](NC/C=C/C(=O)N1CCc2c(sc3ncnc(Nc4ccc(Oc5ccc(C)nc5)c(C)c4)c23)C1)C(F)(F)F` [Compound 122]: the pEC50 was more than 7.00.
Next, `Cc1ccc(Oc2ccc(Nc3ncnc4sc5c(c34)CCN(C(=O)/C=C/CN3C[C@H]4C[C@@H]3CC4C#N)C5)cc2C)cn1` (stereo partly drawn) [Compound 120]: more than 7.00; `Cc1ccc(Oc2ccc(Nc3ncnc4sc5c(c34)CCN(C(=O)/C=C/CN3CCC[C@H](CO)C3)C5)cc2C)cn1` [Compound 155]: more than 7.00; `Cc1ccc(Oc2ccc(Nc3ncnc4sc5c(c34)C(C)N(C(=O)C=CCN(C)C)C5)cc2C)cn1` (single isomer, unassigned) [Compound 148]: 6.00 to 6.46.
